Results reported in patent EP1914309A1 (priority 2006, dated 2008).

How the values were obtained:
[1] = system: X4 tropic virus; details: mixture of viral envelopes from reference viruses NL4-3 and JR-CSF; infection via CXCR4; inhibitor at saturating dose; Figure 5
Experimental: Viral supernatants are used to infect U373MG-CD4 indicator cells expressing either the CCR5 or CXCR4 co-receptor (U373-CCR5 or U373-CXCR4), in presence or absence of co-receptor inhibitors at a saturating dose. The indicator cells contain the lacZ gene under control of the HIV-1 LTR which allows the determination of viral infection and thus of viral tropism using a colorimetric assay based on the expression of the β-galactosidase by Tat (see Figure 4).
In the RVA tropism, viral infection is detected independently for both co-receptors. A sample is considered positive when the ratio [OD sample/ OD control] reaches or exceeds 1.5 (the control being an R5-tropic virus on CXCR4+ cells or a X4-tropic virus on CCR5+ cells).
On the day of infection, the condition of the indicator U373-CCR5 and U373-CXCR4 cells is verified. CXCR4- and CCR5-inhibitors are prepared at 4x their final concentrations used in the test (e.g. 4x AMD-3100 at 8 µg/ml). […]
The β-galactosidase produced by the infected U373-CCR5 or U373-CXCR4 cells is quantified: the level of marker expressed is quantified by measuring the β-galactosidase activity by using a CPRG (chlorophenolred-β-D-galactopyranoside) substrate. […]

[2] = system: HIV-1; details: concentration at which cell infection by a virus having tropism for said cell is 100% blocked
From the text: A "saturating dose of an inhibitor" denotes a concentration of inhibitor at which cell infection by a virus having tropism for said cell is 100% blocked by the inhibitor, which is function of the inhibitor.

c1cc(CN2CCCNCCNCCCNCC2)ccc1CN1CCCNCCNCCCNCC1 [AMD3100]
inhibition of infection [1]: 100% | saturating dose of an inhibitor [2]: up to 2 µg/ml
